# Results taken from patent US12708620B2, “Prodrugs and medical uses thereof” (priority 2018, dated 2026).
# “Also recorded” adds a separate entry of the source.
# Tests used:
# Type in all cases: in vivo, BALB/c Nude Mice
# [1] = system: MDA-MB-468 tumor xenograft; test: breast cancer (TNBC) xenograft model; conditions: MDA-MB-468 xenograft
# [2] = system: DMS 114 tumor xenograft; test: lung cancer (SCLC) xenograft model; conditions: DMS 114 xenograft; 600 mg/kg IP; hypoxic status confirmed
# Method: (§1) All animal models were established as xenograft model in BALB/c Nude Mice (6-8 weeks old, 17-23 grams, maintained in standard conditions and diet), following approved IACUC (Institutional Animal Care and Use Committees) protocols. Cpd.11 Ms was formulated using 2% dimethyl sulfoxide (DMSO in water for injection, starting from a Cpd.11 Ms main preparation (100-60 mg/ml in 2% DMSO in water for injection).
# (§2) After tumor cell inoculation, the animals were checked daily for morbidity and mortality. Before commencement of treatment all animals were weighed and the tumor volumes were measured using a caliper. The treatments were started when the mean tumor size reached approx. 250 mm^3. […] At the time of routine monitoring, the animals were checked for any effects of tumor growth and treatments on normal behavior such as mobility, visual estimation of food and water consumption, body weight gain/loss (body weights were measured daily during the 5-day treatment and thrice weekly after treatment), eye/hair matting and any other abnormal effect. Death and observed clinical signs were recorded on the basis of the numbers of animals within each subset. […] The surrogate endpoint for survival was calculated and indicated as TVx4 (initial tumor volume times 4). […] All data were analyzed in SPSS (Statistical Product and Service Solutions) version 18.0 (IBM, Armonk, NY, U.S.). […]
# [3] = system: NCI-H1650 tumor xenograft; test: lung cancer (NSCLC) xenograft model
# Method: as §1, §2
# [4] = system: pH2AX (Histone H2A.X, Phospho S139) in DMS 114 xenograft; test: DNA damage by pH2AX staining with pimonidazole colocalization; conditions: 6 hours post single 600 mg/kg
# Method: To evaluate the impact of Cpd.11 Ms treatment on the induction of DNA damage, histological analysis of pH2AX staining and investigated colocalization of pH2AX and pimonidazole staining was performed in the small cell lung cancer model, DMS 114. DNA damage was assessed at 6 hours post a single administration of Cpd.11 Ms at 600 mg/kg. Pimonidazole Hydrochloride and pH2AX (Histone H2A.X, Phospho S139) antibodies are commercially available (Anti-Pimonidazole Hydrochloride, HP FITC Mab-1, HPI Hypoxyprobe Inc; Anti-Histone H2A.X (Phospho S139) antibody [EP854 (2) Y] ChIP Grade, ab81299, Abcam). From each xenograft sample, 3 non-sequential, 5 μm section levels with 50 μm spacing between each level were obtained. From each level, two or three serial sections were produced and collected on two or three slides depending upon the staining required: i) H&E and Pimonidazole or ii) H&E, Pimonidazole and pH2AX. Sections were then dried overnight at ~37° C. prior to staining. The H&Es were performed on a Leica ST4040 staining platform using harris haematoxylin and 1% eosin. Following antigen retrieval and subsequent protein blocking, the pH2AX antibody was incubated on the study tissue sections at a concentration of 1:48000 for 60 minutes. Following quenching of endogenous Horse Radish Peroxidase (HRP) activity using 3% hydrogen peroxide (aqueous), binding of pH2AX was visualised using a polymer based HRP driven detection system and ImmPACT DAB chromogen giving a brown reaction product at the site of antibody binding. A haematoxylin nuclear counterstain was then applied to the tissue sections. The Pimonidazole (FITC conjugated) antibody was incubated on the study tissue sections at a concentration of 1:5000 for 60 minutes. Following quenching of endogenous Horse Radish Peroxidase (HRP) activity using 3% hydrogen peroxide (aqueous), binding of Pimonidazole was visualised using an HRP conjugated rabbit anti-FITC secondary antibody (HPI Hypoxyprobe Inc, anti-FITC-HRP) and ImmPACT DAB chromogen giving a brown reaction product at the site of antibody binding. […]
compound,measurement,setting,value
"CCN1CCN(C(=O)c2cc(N(CCBr)CCOS(C)(=O)=O)c(S(C)(=O)=O)cc2[N+](=O)[O-])CC1.CS(=O)(=O)O [Cpd.11 Ms, 4-(5-((2-bromoethyl) (2-((methylsulfonyl)oxy)ethyl)amino)-4-(methylsulfonyl)-2-nitrobenzoyl)-1-ethylpiperazin-1-ium methanesulfonate]",Anti-tumor effect,"[1]; 200-800 mg/kg IP, hypoxic status confirmed","Strong impact,"
same,impact on hypoxia by pimonidazole immunohistochemical staining,[1]; 400-800 mg/kg from 1 to 5 consecutive days,clear impact
same,Anti-tumor effect,[2],"Clear impact,"
same,Anti-tumor effect,"[3]; 600 mg/kg IP, hypoxic status confirmed","Clear impact,"
same,median surrogate survival index,[3]; single treatment cycle,significant effect
same,"DNA damage (pH2AX) in normoxic areas, treated vs vehicle treated animals",[4],not statistically significantly different
same,"DNA damage (pH2AX), hypoxic (pimonidazole positive) vs normoxic (pimonidazole negative) areas in treated animals","[4]; P=0.023, methanesulfonate, 600 mg/kg",significantly higher DNA damage; also recorded: mostly detected in the hypoxic areas
same,"DNA damage (pH2AX) in hypoxic (pimonidazole positive) areas, treated vs vehicle treated animals",[4]; P=0.038,significant increase in DNA damage
